Results published in ChEMBL document CHEMBL4004821, “Design and synthesis of novel tetrandrine derivatives as potential anti-tumor agents against human hepatocellular carcinoma” (Eur J Med Chem, 2017).

How the values were obtained:
PLC-PRF-5 = test: Cytotoxicity against human PLC/PRF/5 cells assessed as growth inhibition after 24 hrs by MTT assay; format: functional, cell-based; conditions: PLC-PRF-5, 24 h
[1] = Cytotoxicity against human MHCC97L cells assessed as growth inhibition after 24 hrs by MTT assay; format: functional, cell-based

Work on `COc1cc(NC(=O)C2CC2)c2cc1Oc1ccc(cc1)C[C@H]1c3cc(c(OC)cc3CCN1C)Oc1c(OC)c(OC)cc3c1[C@H](C2)N(C)CC3` yielded an IC50 (PLC-PRF-5) of 6.45 µM and an IC50 [1] of 7.68 µM.

With `COc1cc(NC(=O)CCCl)c2cc1Oc1ccc(cc1)C[C@H]1c3cc(c(OC)cc3CCN1C)Oc1c(OC)c(OC)cc3c1[C@H](C2)N(C)CC3` the IC50 (PLC-PRF-5) was 6.28 µM and the IC50 [1] was 9.21 µM.

Molecule `C=CC(=O)Nc1cc(OC)c2cc1C[C@H]1c3c(cc(OC)c(OC)c3Oc3cc4c(cc3OC)CCN(C)[C@H]4Cc3ccc(cc3)O2)CCN1C` has an IC50 (PLC-PRF-5) of 10.7 µM and an IC50 [1] of 10.4 µM.

`COc1cc(NC(=O)c2cc[nH]n2)c2cc1Oc1ccc(cc1)C[C@H]1c3cc(c(OC)cc3CCN1C)Oc1c(OC)c(OC)cc3c1[C@H](C2)N(C)CC3` gave an IC50 (PLC-PRF-5) of 2.24 µM and an IC50 [1] of 4.17 µM.

With `COc1cc(NC(=O)CCBr)c2cc1Oc1ccc(cc1)C[C@H]1c3cc(c(OC)cc3CCN1C)Oc1c(OC)c(OC)cc3c1[C@H](C2)N(C)CC3` the IC50 (PLC-PRF-5) was 6.34 µM and the IC50 [1] was 7.86 µM.

Work on `COc1cc(NC(=O)c2cccs2)c2cc1Oc1ccc(cc1)C[C@H]1c3cc(c(OC)cc3CCN1C)Oc1c(OC)c(OC)cc3c1[C@H](C2)N(C)CC3` yielded an IC50 (PLC-PRF-5) of 9.01 µM and an IC50 [1] of 11.9 µM.

Molecule `COc1cc(NC(=O)c2ccccc2Cl)c2cc1Oc1ccc(cc1)C[C@H]1c3cc(c(OC)cc3CCN1C)Oc1c(OC)c(OC)cc3c1[C@H](C2)N(C)CC3` has an IC50 (PLC-PRF-5) of 12.1 µM and an IC50 [1] of 2.81 µM.

Molecule `COc1cc(NC(=O)/C=C/c2ccccc2)c2cc1Oc1ccc(cc1)C[C@H]1c3cc(c(OC)cc3CCN1C)Oc1c(OC)c(OC)cc3c1[C@H](C2)N(C)CC3` has an IC50 (PLC-PRF-5) of 9.81 µM and an IC50 [1] of 7.7 µM.

`COc1cc(NC(=O)C2CCCO2)c2cc1Oc1ccc(cc1)C[C@H]1c3cc(c(OC)cc3CCN1C)Oc1c(OC)c(OC)cc3c1[C@H](C2)N(C)CC3` (some centres not stated) showed an IC50 (PLC-PRF-5) of 7.32 µM and an IC50 [1] of 5.66 µM.

For `COc1cc(NC(=O)c2ccc(Cl)cc2)c2cc1Oc1ccc(cc1)C[C@H]1c3cc(c(OC)cc3CCN1C)Oc1c(OC)c(OC)cc3c1[C@H](C2)N(C)CC3`, the IC50 (PLC-PRF-5) was 11.9 µM and the IC50 [1] was 10.3 µM.

In the case of `COc1cc(NC(=O)c2cccc(Cl)c2)c2cc1Oc1ccc(cc1)C[C@H]1c3cc(c(OC)cc3CCN1C)Oc1c(OC)c(OC)cc3c1[C@H](C2)N(C)CC3`, the IC50 (PLC-PRF-5) is reported as 7.63 µM and the IC50 [1] is reported as 3.67 µM.

For `COc1cc(NC(=O)c2ccc(C(F)(F)F)cc2)c2cc1Oc1ccc(cc1)C[C@H]1c3cc(c(OC)cc3CCN1C)Oc1c(OC)c(OC)cc3c1[C@H](C2)N(C)CC3`, the IC50 (PLC-PRF-5) was 9.49 µM and the IC50 [1] was 8.41 µM.

In the case of `COc1ccc2cc1Oc1ccc(cc1)C[C@H]1c3cc(c(OC)cc3CCN1C)Oc1c(OC)c(OC)cc3c1[C@H](C2)N(C)CC3` [FANCHININ], the IC50 (PLC-PRF-5) is reported as 18.5 µM and the IC50 [1] is reported as 15 µM.

`COc1cc(NC(=O)C2CC=CC2)c2cc1Oc1ccc(cc1)C[C@H]1c3cc(c(OC)cc3CCN1C)Oc1c(OC)c(OC)cc3c1[C@H](C2)N(C)CC3` showed an IC50 (PLC-PRF-5) of 6.42 µM and an IC50 [1] of 5.76 µM.

`CCCCCC(=O)Nc1cc(OC)c2cc1C[C@H]1c3c(cc(OC)c(OC)c3Oc3cc4c(cc3OC)CCN(C)[C@H]4Cc3ccc(cc3)O2)CCN1C` gave an IC50 (PLC-PRF-5) of 10.3 µM and an IC50 [1] of 12.6 µM.

With `COc1cc(NC(=O)c2ccccc2)c2cc1Oc1ccc(cc1)C[C@H]1c3cc(c(OC)cc3CCN1C)Oc1c(OC)c(OC)cc3c1[C@H](C2)N(C)CC3` the IC50 (PLC-PRF-5) was 9.16 µM and the IC50 [1] was 7.8 µM.

Work on `COc1cc(NC(=O)c2ccc([N+](=O)[O-])o2)c2cc1Oc1ccc(cc1)C[C@H]1c3cc(c(OC)cc3CCN1C)Oc1c(OC)c(OC)cc3c1[C@H](C2)N(C)CC3` yielded an IC50 (PLC-PRF-5) of 2.5 µM and an IC50 [1] of 2.11 µM.

`COc1cc(NC(=O)CCCCl)c2cc1Oc1ccc(cc1)C[C@H]1c3cc(c(OC)cc3CCN1C)Oc1c(OC)c(OC)cc3c1[C@H](C2)N(C)CC3` gave an IC50 (PLC-PRF-5) of 7.22 µM and an IC50 [1] of 9.76 µM.

`COc1cc(NC(=O)c2ccoc2)c2cc1Oc1ccc(cc1)C[C@H]1c3cc(c(OC)cc3CCN1C)Oc1c(OC)c(OC)cc3c1[C@H](C2)N(C)CC3` gave an IC50 (PLC-PRF-5) of 1.89 µM and an IC50 [1] of 3.22 µM.

In the case of `COc1cc(NC(=O)C(Cl)(Cl)Cl)c2cc1Oc1ccc(cc1)C[C@H]1c3cc(c(OC)cc3CCN1C)Oc1c(OC)c(OC)cc3c1[C@H](C2)N(C)CC3`, the IC50 (PLC-PRF-5) is reported as 3.22 µM and the IC50 [1] is reported as 4.26 µM.

In the case of `COc1cc(NC(=O)C(F)(F)F)c2cc1Oc1ccc(cc1)C[C@H]1c3cc(c(OC)cc3CCN1C)Oc1c(OC)c(OC)cc3c1[C@H](C2)N(C)CC3`, the IC50 (PLC-PRF-5) is reported as 2.24 µM and the IC50 [1] is reported as 2.41 µM.

In the case of `COc1cc(NC(=O)COC(C)=O)c2cc1Oc1ccc(cc1)C[C@H]1c3cc(c(OC)cc3CCN1C)Oc1c(OC)c(OC)cc3c1[C@H](C2)N(C)CC3`, the IC50 (PLC-PRF-5) is reported as 10.2 µM and the IC50 [1] is reported as 8.41 µM.

In the case of `COc1cc(NC(=O)c2ccc(Br)cc2)c2cc1Oc1ccc(cc1)C[C@H]1c3cc(c(OC)cc3CCN1C)Oc1c(OC)c(OC)cc3c1[C@H](C2)N(C)CC3`, the IC50 (PLC-PRF-5) is reported as 7.76 µM and the IC50 [1] is reported as 4.4 µM.

Molecule `COc1cc(NC(=O)C(C)(C)C)c2cc1Oc1ccc(cc1)C[C@H]1c3cc(c(OC)cc3CCN1C)Oc1c(OC)c(OC)cc3c1[C@H](C2)N(C)CC3` has an IC50 (PLC-PRF-5) of 5.37 µM and an IC50 [1] of 6.4 µM.

Work on `COc1cc(NC(=O)c2cccc3ccccc23)c2cc1Oc1ccc(cc1)C[C@H]1c3cc(c(OC)cc3CCN1C)Oc1c(OC)c(OC)cc3c1[C@H](C2)N(C)CC3` yielded an IC50 (PLC-PRF-5) of 5.56 µM and an IC50 [1] of 5.63 µM.

Molecule `C=CCCCCCCCCC(=O)Nc1cc(OC)c2cc1C[C@H]1c3c(cc(OC)c(OC)c3Oc3cc4c(cc3OC)CCN(C)[C@H]4Cc3ccc(cc3)O2)CCN1C` has an IC50 (PLC-PRF-5) of 11.3 µM and an IC50 [1] of 10.8 µM.

In the case of `COc1cc(NC(=O)c2ccc(Cl)cc2Cl)c2cc1Oc1ccc(cc1)C[C@H]1c3cc(c(OC)cc3CCN1C)Oc1c(OC)c(OC)cc3c1[C@H](C2)N(C)CC3`, the IC50 (PLC-PRF-5) is reported as 8.24 µM and the IC50 [1] is reported as 1.7 µM.

In the case of `COC(=O)C(=O)Nc1cc(OC)c2cc1C[C@H]1c3c(cc(OC)c(OC)c3Oc3cc4c(cc3OC)CCN(C)[C@H]4Cc3ccc(cc3)O2)CCN1C`, the IC50 (PLC-PRF-5) is reported as 3.72 µM and the IC50 [1] is reported as 2.46 µM.

With `CNC(=O)c1cc(Oc2ccc(NC(=O)Nc3ccc(Cl)c(C(F)(F)F)c3)cc2)ccn1` [SORAFENIB] the IC50 (PLC-PRF-5) was 29.9 µM and the IC50 [1] was 34.4 µM.

In the case of `COc1cc(NC(=O)C=C(C)C)c2cc1Oc1ccc(cc1)C[C@H]1c3cc(c(OC)cc3CCN1C)Oc1c(OC)c(OC)cc3c1[C@H](C2)N(C)CC3`, the IC50 (PLC-PRF-5) is reported as 7.63 µM and the IC50 [1] is reported as 6.31 µM.

For `COc1ccc(C(=O)Nc2cc(OC)c3cc2C[C@H]2c4c(cc(OC)c(OC)c4Oc4cc5c(cc4OC)CCN(C)[C@H]5Cc4ccc(cc4)O3)CCN2C)cc1`, the IC50 (PLC-PRF-5) was 5.32 µM and the IC50 [1] was 12 µM.

Work on `COc1cc(NC(C)=O)c2cc1Oc1ccc(cc1)C[C@H]1c3cc(c(OC)cc3CCN1C)Oc1c(OC)c(OC)cc3c1[C@H](C2)N(C)CC3` yielded an IC50 (PLC-PRF-5) of 12.3 µM and an IC50 [1] of 12.2 µM.

Molecule `COc1cc(NC(=O)OCC(C)C)c2cc1Oc1ccc(cc1)C[C@H]1c3cc(c(OC)cc3CCN1C)Oc1c(OC)c(OC)cc3c1[C@H](C2)N(C)CC3` has an IC50 (PLC-PRF-5) of 4.66 µM and an IC50 [1] of 1.4 µM.

In the case of `COc1cc(NC(=O)CO)c2cc1Oc1ccc(cc1)C[C@H]1c3cc(c(OC)cc3CCN1C)Oc1c(OC)c(OC)cc3c1[C@H](C2)N(C)CC3`, the IC50 (PLC-PRF-5) is reported as 10.2 µM and the IC50 [1] is reported as 9.09 µM.

For `COc1cc(NC(=O)c2c(Cl)cc(Cl)cc2Cl)c2cc1Oc1ccc(cc1)C[C@H]1c3cc(c(OC)cc3CCN1C)Oc1c(OC)c(OC)cc3c1[C@H](C2)N(C)CC3`, the IC50 (PLC-PRF-5) was 6.54 µM and the IC50 [1] was 4.12 µM.

Work on `COc1cc(NC(=O)c2ccc(Cl)c(Cl)c2)c2cc1Oc1ccc(cc1)C[C@H]1c3cc(c(OC)cc3CCN1C)Oc1c(OC)c(OC)cc3c1[C@H](C2)N(C)CC3` yielded an IC50 (PLC-PRF-5) of 6.82 µM and an IC50 [1] of 3.81 µM.
